Source: US11045486B2, “Therapeutic method and therapeutic agent for atopic dermatitis in animals” (priority 2015, dated 2021)
“Also recorded” adds a separate entry of the source.

What was measured:
canine atopic dermatitis [1] = details: 7 out of 37 dogs with canine atopic dermatitis; cited from earlier work
canine atopic dermatitis [2] = assay: CADLI index (skin lesion score) in dogs with atopic dermatitis before and after drug administration; assay type: in vivo, dog; details: for effect of improving clinical symptoms of canine atopic dermatitis: 127 dogs, single agents 30 days each, combination up to 60 days, compared with before administration; for CADLI score, average value and standard error / CADLI score, average value (standard error): 30-days administration; for CADLI score, average value (standard error): all 127 dogs, oral with meals every 12 hours (RXM 5 mg/kg, PTX 25 mg/kg), prior to administration 33.17
Excerpt: The CADLI index used in the present specification is an index representing the skin condition of atopic dermatitis, and the skin condition of the five parts of the body is scored by estimating erythema, scratch, erosion, alopecia, lichenification, hyperpigmentation (Non-Patent Document 14). Therefore, the highest point is 50 points, and closer to 50 points the skin inflammation is becoming more severe. […] This figure decreased to 12.04±1.11 after 30 days of dosing and 6.51±1.51 after 60 days, and it was remarkable for all 127 cases (100%). To be able to obtain remission of symptoms with high probability. […] Target animals: For five years from 2010 to 2015, at Gotofu Animal Hospital (1-1-3, […], Fukuoka City, Fukuoka Prefecture), among dogs diagnosed as atopic dermatitis of dogs by diagnostic criteria announced by Dr. Favrot in 2010 (non patent literature 15), the examinations were conducted for 127 dogs for which the consent and cooperation of treatment were obtained from the family and whose sum of SQK were larger than the sum of SLK of the 5 parts, whose SLK and SQK value were calculated for 5 parts of the neck, the fossa, the back, the forearm, and the lower leg. As content of implementation items, in all 127 cases, roxithromycin was administered as a single agent for 30 days, and pentoxifylline was administered as a single agent for the next 30 days. During the last 60 days, roxithromycin and pentoxifylline were administered in combination. The constituent of the targeted dog type is as shown in (Table 1). The constituent of the gender was 57 males (35 castrated with 35 male), 70 females (35 contraceptives already) (Table 1). Methods: In all 127 cases, 5 mg/kg of roxithromycin alone was orally administered with meals every 12 hours for the first 30 days. For the next 30 days, pentoxifylline alone was orally administered at 25 mg/kg with meals every 12 hours. For the next 60 days, 5 mg/kg of roxithromycin and 25 mg/kg of pentoxifylline were orally administered simultaneously with meals every 12 hours. After that, administration of roxithromycin and pentoxifylline was discontinued and a follow-up study was conducted for 30 days. For all treatment periods, meals were allowed to feed freely without restriction. Also, shampoo was carried out at home once a week. Local corticosteroid therapy was performed at any time as long as there was a strong itching lesion After measurement, roxithromycin (RXM) was administered as a single agent for 30 days. After administration, CADLI index was measured to ascertain the skin condition, and it was judged whether roxithromycin has the ability to improve atopic dermatitis by comparing the change of numerical values before and after medication. Similarly, for pentoxifylline (PTX), it was estimated whether pentoxifylline has the effect of improving canine atopic dermatitis by measuring the CADLI index as an index and comparing the values before and after administration. Finally, for administration of roxithromycin and pentoxifylline in combination, the CADLI index was measured on the 30th and 60th days of administration, respectively, and the effect of the drug was evaluated by comparing the values.

[3] = breed West Highland white terrier

Row | Structure (SMILES) | effect of improving clinical symptoms of canine atopic dermatitis (canine atopic dermatitis [2]) | CADLI score, average value and standard error (canine atopic dermatitis [2]; age 4 years-6 years of age) | CADLI score, average value and standard error (canine atopic dermatitis [2]; age 7 years-9 years of age) | CADLI score, average value and standard error (canine atopic dermatitis [2]; age 10 years-12 years of age) | CADLI score, average value and standard error (canine atopic dermatitis [2]; age Over 13 years of age) | CADLI score, average value and standard error (canine atopic dermatitis [2]; age Under 3 years of age) | CADLI score, average value (standard error) (canine atopic dermatitis [2]) | CADLI score, average value and standard error (canine atopic dermatitis [2]; breed Chihuahua) | CADLI score, average value and standard error (canine atopic dermatitis [2]; breed Miniature dachschund) | CADLI score, average value and standard error (canine atopic dermatitis [2]; breed Mongrel) | CADLI score, average value and standard error (canine atopic dermatitis [2]; breed Others) | CADLI score, average value and standard error (canine atopic dermatitis [2]; breed Pug) | CADLI score, average value and standard error (canine atopic dermatitis [2]; breed Shiba) | CADLI score, average value and standard error (canine atopic dermatitis [2]; breed Shih Tzu) | CADLI score, average value and standard error (canine atopic dermatitis [2]; breed Toy Poodle) | CADLI score, average value and standard error (canine atopic dermatitis [2]; breed Welsh Corgi) | CADLI score, average value and standard error (canine atopic dermatitis [2]; [3]) | CADLI score, average value and standard error (canine atopic dermatitis [2]; breed Yorkshire Terrier) | CADLI score, average value and standard error (canine atopic dermatitis [2]; sex Castrated male) | CADLI score, average value and standard error (canine atopic dermatitis [2]; sex Female) | further results
1 | CC(=O)CCCCn1c(=O)c2c(ncn2C)n(C)c1=O [PTX, Pentoxifylline] | no therapeutic effect to improve atopic dermatitis in dogs; also recorded: unable to confirm the effect of improving the symptoms of atopic dermatitis in dogs | 32.38 ± 3.01 | 32.95 ± 3.47 | 34.61 ± 2.84 | 31.68 ± 3.93 | 33.94 ± 4.74 | 33.09 | 31.00 ± 9.01 | 28.64 ± 4.11 | 36.00 ± 6.08 | 35.26 ± 3.66 | 35.60 ± 3.48 | 34.93 ± 4.45 | 32.94 ± 3.09 | 36.86 ± 5.42 | 31.50 ± 6.11 | 34.40 ± 7.91 | 22.29 ± 7.94 | 32.63 ± 2.87 | 32.43 ± 3.13 | patients in which single administration of pentoxifylline was effective (canine atopic dermatitis [1]): 19%; CADLI score, average value (standard error) (canine atopic dermatitis [2]; listed as pentoxifylline): 33.09±1.52; CADLI score, average value and standard error (canine atopic dermatitis [2]; sex Male): 35.41 ± 3.40; CADLI score, average value and standard error (canine atopic dermatitis [2]; sex Spayed female): 32.74 ± 2.98
2 | CC[C@H]1OC(=O)[C@H](C)[C@@H](O[C@H]2C[C@@](C)(OC)[C@@H](O)[C@H](C)O2)[C@H](C)[C@@H](O[C@@H]2O[C@H](C)C[C@H](N(C)C)[C@H]2O)[C@](C)(O)C[C@@H](C)/C(=N\OCOCCOC)[C@H](C)[C@@H](O)[C@]1(C)O [RXM, Roxithromycin] | did not seem to have sufficient therapeutic effect to improve atopic dermatitis in dogs; also recorded: no effect of improving canine atopic dermatitis | 32.75 ± 2.82 | 33.55 ± 3.54 | 35.18 ± 2.89 | 32.32 ± 4.07 | 34.72 ± 4.91 | 33.64 | 31.67 ± 9.18 | 29.00 ± 4.24 | 36.57 ± 6.25 | 36.16 ± 3.50 | 35.30 ± 3.63 | 35.60 ± 4.44 | 33.39 ± 2.88 | 37.57 ± 5.51 | 31.50 ± 6.98 | 35.00 ± 8.08 | 23.00 ± 8.56 | 33.23 ± 2.97 | 32.71 ± 2.96 | CADLI score, average value (standard error) (canine atopic dermatitis [2]; listed as roxithromycin): 33.64±1.51; CADLI score, average value and standard error (canine atopic dermatitis [2]; sex Male): 36.41 ± 3.28; CADLI score, average value and standard error (canine atopic dermatitis [2]; sex Spayed female): 33.23 ± 3.01
